Values of other authors, collected in patent publication US20230321005A1, “PHYTONADIONE COMPOSITIONS” (CIPLA LIMITED, priority 2020, published 2023).

Experiments:
[1] = forms multiple peroxide and epoxy impurities

Solubility in aqueous solvents: insoluble
Susceptibility to oxidative and photolytic degradation [1]: highly susceptible
SMILES: CC1=C(C/C=C(\C)CCC[C@H](C)CCC[C@H](C)CCCC(C)C)C(=O)c2ccccc2C1=O [Phytonadione, 2 - methyl - 3 - phytyl - 1, 4 - naphthoquinone]
